According to patent US11655217B2, “Pyrazole MAGL inhibitors” (H. Lundbeck A/S, priority 2017, dated 2023):

Assays:
MAGL = MAGL (Mus musculus (Mouse), UniProt O35678); test: Mouse brain proteomes from inhibitor treated mice (oral gavage, sacrificed 4 h after administration, ABPP analysis); conditions: 5 mg/kg oral gavage
Description: (§1) Preparation of Mouse Brain Proteomes from Inhibitor Treated Mice.
(§2) Inhibitors were administered to wild-type C57Bl/6J by oral gavage in a vehicle of polyethylene glycol.

FAAH = FAAH (Mus musculus (Mouse), UniProt O08914); test: Mouse brain proteomes from inhibitor treated mice (oral gavage, sacrificed 4 h after administration, ABPP analysis), FAAH; conditions: 5 mg/kg oral gavage
Sequence of FAAH (O08914 whole entry): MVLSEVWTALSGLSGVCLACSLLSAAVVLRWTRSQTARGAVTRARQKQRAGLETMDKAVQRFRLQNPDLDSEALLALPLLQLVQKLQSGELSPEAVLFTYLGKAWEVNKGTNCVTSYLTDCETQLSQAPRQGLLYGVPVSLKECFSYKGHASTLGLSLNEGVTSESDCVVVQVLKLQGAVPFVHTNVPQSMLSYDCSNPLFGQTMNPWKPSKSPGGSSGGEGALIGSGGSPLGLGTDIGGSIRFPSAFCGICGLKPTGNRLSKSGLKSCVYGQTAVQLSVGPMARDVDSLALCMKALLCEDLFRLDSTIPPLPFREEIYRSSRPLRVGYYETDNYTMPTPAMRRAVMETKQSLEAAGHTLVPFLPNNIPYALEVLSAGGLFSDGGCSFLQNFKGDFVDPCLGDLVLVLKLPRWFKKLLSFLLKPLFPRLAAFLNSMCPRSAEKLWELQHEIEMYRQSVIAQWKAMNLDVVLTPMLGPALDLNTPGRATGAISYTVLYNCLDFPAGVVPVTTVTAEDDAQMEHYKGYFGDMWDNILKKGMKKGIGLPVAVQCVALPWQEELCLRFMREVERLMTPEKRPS
Description: as §1, §2

Sequence of MAGL (O35678 whole entry): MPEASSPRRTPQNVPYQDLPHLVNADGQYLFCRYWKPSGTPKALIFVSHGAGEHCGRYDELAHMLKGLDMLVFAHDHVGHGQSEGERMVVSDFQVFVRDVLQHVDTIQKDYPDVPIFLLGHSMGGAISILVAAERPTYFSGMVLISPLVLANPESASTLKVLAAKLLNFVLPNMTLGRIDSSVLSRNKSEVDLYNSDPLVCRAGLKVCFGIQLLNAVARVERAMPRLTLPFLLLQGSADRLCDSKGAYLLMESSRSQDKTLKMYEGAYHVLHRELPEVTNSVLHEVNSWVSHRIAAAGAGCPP

For O=C(O)c1ccn(C(=O)N2CCN(Cc3ccc(C(F)(F)F)cc3N3CCOCC3)CC2)n1 [Example 3, 1-(4-(2-Morpholino-4-(trifluoromethyl)benzyl)piperazine-1-carbonyl)-1H-pyrazole-3-carboxylic Acid], the “MAGL % inh. 5 mg/kg (mouse)” value (MAGL) was “D (% inhibition is greater than or equal to 0% and less than 25%)” and the “FAAH % inh. 5 mg/kg (mouse)” value (FAAH) was “D (% inhibition is greater than or equal to 0% and less than 25%)”.
For CN(Cc1ccc(C(F)(F)F)cc1N1CCOCC1)C1(C)CCN(C(=O)n2ccc(C(=O)O)n2)CC1 [Example 4, 1-(4-Methyl-4-(methyl(2-morpholino-4-(trifluoromethyl)benzyl)amino)piperidine-1-carbonyl)-1H-pyrazole-3-carboxylic Acid], the “MAGL % inh. 5 mg/kg (mouse)” value (MAGL) was “D (% inhibition is greater than or equal to 0% and less than 25%)” and the “FAAH % inh. 5 mg/kg (mouse)” value (FAAH) was “D (% inhibition is greater than or equal to 0% and less than 25%)”.
For O=C(O)c1ccn(C(=O)N2CCN(Cc3ccc(C(F)(F)F)cc3N3CCN(C4CC4)CC3)CC2)n1 [Example 6, 1-(4-(2-(4-Cyclopropylpiperazin-1-yl)-4-(trifluoromethyl)benzyl)piperazine-1-carbonyl)-1H-pyrazole-3-carboxylic Acid], the “MAGL % inh. 5 mg/kg (mouse)” value (MAGL) was “D (% inhibition is greater than or equal to 0% and less than 25%)” and the “FAAH % inh. 5 mg/kg (mouse)” value (FAAH) was “D (% inhibition is greater than or equal to 0% and less than 25%)”.
In the case of O=C(O)c1ccn(C(=O)N2CCN(Cc3ccc(C(F)(F)F)c(N4CCCC4)c3)CC2)n1 [Example 7, 1-(4-(3-(Pyrrolidin-1-yl)-4-(trifluoromethyl)benzyl)piperazine-1-carbonyl)-1H-pyrazole-3-carboxylic Acid], the “MAGL % inh. 5 mg/kg (mouse)” value (MAGL) is reported as “D (% inhibition is greater than or equal to 0% and less than 25%)” and the “FAAH % inh. 5 mg/kg (mouse)” value (FAAH) is reported as “D (% inhibition is greater than or equal to 0% and less than 25%)”.
For O=C(O)c1ccn(C(=O)N2CCN(Cc3ccc(C(F)(F)F)c(-c4nccs4)c3)CC2)n1 [Example 8, 1-(4-(3-(Thiazol-2-yl)-4-(trifluoromethyl)benzyl)piperazine-1-carbonyl)-1H-pyrazole-3-carboxylic Acid], the “MAGL % inh. 5 mg/kg (mouse)” value (MAGL) was “D (% inhibition is greater than or equal to 0% and less than 25%)” and the “FAAH % inh. 5 mg/kg (mouse)” value (FAAH) was “D (% inhibition is greater than or equal to 0% and less than 25%)”.
With CN(Cc1ccc(C(F)(F)F)cc1-c1nccs1)C1(C)CCN(C(=O)n2ccc(C(=O)O)n2)CC1 [Example 10, 1-(4-methyl-4-(methyl(2-(thiazol-2-yl)-4-(trifluoromethyl)benzyl)amino)piperidine-1-carbonyl)-1H-pyrazole-3-carboxylic Acid] the “MAGL % inh. 5 mg/kg (mouse)” value (MAGL) was “D (% inhibition is greater than or equal to 0% and less than 25%)” and the “FAAH % inh. 5 mg/kg (mouse)” value (FAAH) was “D (% inhibition is greater than or equal to 0% and less than 25%)”.
O=C(O)c1ccn(C(=O)N2CCC(Oc3ccc(Cl)cc3N3CCCC3)CC2)n1 [Example 11, 1-(4-(4-Chloro-2-(pyrrolidin-1-yl)phenoxy)piperidine-1-carbonyl)-1H-pyrazole-3-carboxylic Acid] was tested, and the “MAGL % inh. 5 mg/kg (mouse)” value (MAGL) was “D (% inhibition is greater than or equal to 0% and less than 25%)” and the “FAAH % inh. 5 mg/kg (mouse)” value (FAAH) was “D (% inhibition is greater than or equal to 0% and less than 25%)”.
In the case of COC1CCN(c2cc(C(F)(F)F)ccc2CN2CCN(C(=O)n3ccc(C(=O)O)n3)CC2)CC1 [Example 12, 1-(4-(2-(4-Methoxypiperidin-1-yl)-4-(trifluoromethyl)benzyl)piperazine-1-carbonyl)-1H-pyrazole-3-carboxylic Acid], the “MAGL % inh. 5 mg/kg (mouse)” value (MAGL) is reported as “D (% inhibition is greater than or equal to 0% and less than 25%)” and the “FAAH % inh. 5 mg/kg (mouse)” value (FAAH) is reported as “D (% inhibition is greater than or equal to 0% and less than 25%)”.
For O=C(O)c1ccn(C(=O)N2CCN(Cc3ccc(C(F)(F)F)c(N4C5CCC4COC5)c3)CC2)n1 [Example 40, 1-(4-(3-(3-oxa-8-azabicyclo[3.2.1]octan-8-yl)-4-(trifluoromethyl)benzyl)piperazine-1-carbonyl)-1H-pyrazole-3-carboxylic acid], the “MAGL % inh. 5 mg/kg (mouse)” value (MAGL) was “D (% inhibition is greater than or equal to 0% and less than 25%)” and the “FAAH % inh. 5 mg/kg (mouse)” value (FAAH) was “D (% inhibition is greater than or equal to 0% and less than 25%)”.
In the case of O=C(O)c1ccn(C(=O)N2CCC3(CCN(Cc4cc(Cl)ccc4C(F)(F)F)C3)CC2)n1 [Example 43, 1-(2-(5-chloro-2-(trifluoromethyl)benzyl)-2,8-diazaspiro[4.5]decane-8-carbonyl)-1H-pyrazole-3-carboxylic acid], the “MAGL % inh. 5 mg/kg (mouse)” value (MAGL) is reported as “D (% inhibition is greater than or equal to 0% and less than 25%)” and the “FAAH % inh. 5 mg/kg (mouse)” value (FAAH) is reported as “D (% inhibition is greater than or equal to 0% and less than 25%)”.
For O=C(O)c1ccn(C(=O)N2CCN(Cc3ccc(C(F)(F)F)cc3N3CCN4CCC[C@@H]4C3)CC2)n1 [Example 48, (R)-1-(4-(2-(hexahydropyrrolo-[1,2-a]pyrazin-2(1H)-yl)-4-(trifluoromethyl)benzyl)piperazine-1-carbonyl)-1H-pyrazole-3-carboxylic acid], the “MAGL % inh. 5 mg/kg (mouse)” value (MAGL) was “D (% inhibition is greater than or equal to 0% and less than 25%)” and the “FAAH % inh. 5 mg/kg (mouse)” value (FAAH) was “D (% inhibition is greater than or equal to 0% and less than 25%)”.
In the case of O=C(O)c1ccn(C(=O)N2CCN(Cc3cccc(Oc4ccc(F)cc4)c3)CC2)n1 [Example 51, 1-(4-(3-(4-fluorophenoxy)benzyl)piperazine-1-carbonyl)-1H-pyrazole-3-carboxylic acid], the “MAGL % inh. 5 mg/kg (mouse)” value (MAGL) is reported as “D (% inhibition is greater than or equal to 0% and less than 25%)” and the “FAAH % inh. 5 mg/kg (mouse)” value (FAAH) is reported as “D (% inhibition is greater than or equal to 0% and less than 25%)”.
O=C(O)c1ccn(C(=O)N2C[C@H]3C[C@H](OCc4ccc(Oc5ccc(Cl)cc5)cc4)C[C@H]3C2)n1 [Example 55, 1-(trans-5-((4-(4-chlorophenoxy)benzyl)-oxy)octahydrocyclo-penta-[c]pyrrole-2-carbonyl)-1H-pyrazole-3-carboxylic acid] was tested, and the “MAGL % inh. 5 mg/kg (mouse)” value (MAGL) was “D (% inhibition is greater than or equal to 0% and less than 25%)” and the “FAAH % inh. 5 mg/kg (mouse)” value (FAAH) was “D (% inhibition is greater than or equal to 0% and less than 25%)”.
For O=C(O)c1ccn(C(=O)N2CCN(Cc3cccc(Oc4cc(C(F)(F)F)ccn4)c3)CC2)n1 [Example 57, 1-(4-(3-((4-(trifluoromethyl)pyridin-2-yl)oxy)benzyl)piperazine-1-carbonyl)-1H-pyrazole-3-carboxylic acid], the “MAGL % inh. 5 mg/kg (mouse)” value (MAGL) was “D (% inhibition is greater than or equal to 0% and less than 25%)” and the “FAAH % inh. 5 mg/kg (mouse)” value (FAAH) was “D (% inhibition is greater than or equal to 0% and less than 25%)”.
With O=C(O)c1ccn(C(=O)N2CCN(Cc3ccc(C(F)(F)F)cc3N3CCCC3)CC2)n1 [Example 83, 1-(4-(2-(pyrrolidin-1-yl)-4-(trifluoromethyl)benzyl)piperazine-1-carbonyl)-1H-pyrazole-3-carboxylic acid] the “MAGL % inh. 5 mg/kg (mouse)” value (MAGL) was “D (% inhibition is greater than or equal to 0% and less than 25%)” and the “FAAH % inh. 5 mg/kg (mouse)” value (FAAH) was “D (% inhibition is greater than or equal to 0% and less than 25%)”.
For O=C(O)c1ccn(C(=O)N2CCC3(CCCN3Cc3cc(Cl)cc(C(F)(F)F)c3)CC2)n1 [Example 86, 1-(1-(3-chloro-5-(trifluoromethyl)benzyl)-1,8-diazaspiro[4.5]decane-8-carbonyl)-1H-pyrazole-3-carboxylic acid], the “MAGL % inh. 5 mg/kg (mouse)” value (MAGL) was “D (% inhibition is greater than or equal to 0% and less than 25%)” and the “FAAH % inh. 5 mg/kg (mouse)” value (FAAH) was “D (% inhibition is greater than or equal to 0% and less than 25%)”.
